Common to all, as to format: functional, organism-based
For test [1], the species on record is Mus musculus. Briefly: Compound was evaluated for inhibitory activity against production of nitric oxide (NO) induced by interferon-gamma (IFN-gamma) in mouse macrophages at a concentration of 0.01-40 uM.
The species entered for test [2] is Mus musculus. Briefly: Compound was evaluated for inhibitory activity against production of nitric oxide (NO) induced by interferon-gamma (IFN-gamma) in mouse macrophages at a concentration of 0.01-40 uM; Toxic above 1 uM and not active below 1 uM.
For test [3], the species on record is Mus musculus. Briefly: Compound was evaluated for inhibitory activity against production of nitric oxide (NO) induced by interferon-gamma (IFN-gamma) in mouse macrophages at a concentration of 0.1-1 uM.
For test [4], the species on record is Mus musculus. Briefly: Compound was evaluated for inhibitory activity against production of nitric oxide (NO) induced by interferon-gamma (IFN-gamma) in mouse macrophages.

On to `CC1(C)CC[C@]2(C(=O)O)CC[C@]3(C)[C@H](C(=O)C=C4[C@@]5(C)C=CC(=O)C(C)(C)[C@@H]5CC[C@]43C)[C@@H]2C1`, for which, in the test filed under Mus musculus [1], the IC50 (as a rule, the concentration that inhibits the measured activity by half) stood at 170 nM.

In the test listed under Mus musculus [2], `CC1(C)CC[C@]2(C(=O)O)CC[C@]3(C)C(=CC[C@@H]4[C@@]5(C)C=C(C=O)C(=O)C(C)(C)[C@@H]5CC[C@]43C)C2C1` (stereo not given in full) gave an IC50 greater than 1000 nM.

In turn, `CC1(C)CC[C@]2(C(=O)O)CC[C@]3(C)C(=CC[C@@H]4[C@@]5(C)C=C(O)C(=O)C(C)(C)[C@@H]5CC[C@]43C)C2C1` (stereo not given in full) gave an IC50 in the test filed under Mus musculus [1] of 37000 nM.

For the compound `CC1(C)CC[C@]2(C(=O)O)CC[C@]3(C)C(=CC(=O)[C@@H]4[C@@]5(C)C=CC(=O)C(C)(C)[C@@H]5CC[C@]43C)C2C1` (stereo not given in full), the IC50 in the test filed under Mus musculus [1] came out at 1400 nM.

In turn, `CC1(C)CC[C@]2(C(=O)O)CC[C@]3(C)C(=CC[C@@H]4[C@@]5(C)C=CC(=O)C(C)(C)[C@@H]5CC[C@]43C)C2C1` (stereo not given in full) came in with an IC50 in the test listed under Mus musculus [1] of 7100 nM.

Compound `COC1=C[C@]2(C)[C@H]3CC=C4C5CC(C)(C)CC[C@]5(C(=O)O)CC[C@@]4(C)[C@]3(C)CC[C@H]2C(C)(C)C1=O` (stereo not given in full) showed an IC50 in the test listed under Mus musculus [1] of 19000 nM.

Compound `CC1(C)CC[C@]2(C(=O)O)CC[C@]3(C)C(=CC[C@@H]4[C@@]5(C)C=C(C#N)C(=O)C(C)(C)[C@@H]5CC[C@]43C)C2C1` (stereo not given in full) came in with an IC50 in the test listed under Mus musculus [1] of 600 nM.

For `CC1(C)CC[C@]2(C(=O)O)CC[C@]3(C)[C@H](C(=O)C=C4[C@@]5(C)C=C(C#N)C(=O)C(C)(C)[C@@H]5CC[C@]43C)[C@@H]2C1` [BARDOXOLONE], the IC50 in the test listed under Mus musculus [3] stood at 0.4 nM.

The compound `C[C@@H]1C[C@H]2[C@@H]3CCC4=CC(=O)C=C[C@]4(C)[C@@]3(F)[C@@H](O)C[C@]2(C)[C@@]1(O)C(=O)CO` [DEXAMETHASONE] returned a half-inhibitory concentration (IC50) in the test listed under Mus musculus [4] of 0.3 nM.

In turn, `CC1(C)CC[C@]2(C(=O)O)CC[C@]3(C)C(=CC[C@@H]4[C@@]5(C)CC[C@H](O)C(C)(C)[C@@H]5CC[C@]43C)[C@@H]2C1` [OLEANOLIC_ACID] registered an IC50 in the test filed under Mus musculus [4] greater than 40000 nM.

Source of the values: ChEMBL document CHEMBL1130601, “Design and synthesis of 2-cyano-3,12-dioxoolean-1,9-dien-28-oic acid, a novel and highly active inhibitor of nitric oxide production in mouse macrophages” (Bioorg Med Chem Lett, 1998).
